In test [1] the test system is suspension-cultured cells of Iris germanica. Description: Effect of Kin and NAA in MS-I medium on regeneration potential of differentiated clumps. The settings on record: 6 weeks on MS-D with 1.25 μM BA. It is filed as cell-based. On the procedure: Effect of Kin and NAA, a/one and in combination, in MS-I medium. To induce plant morphogenesis from suspension-cultured cells, 16 different combinations of NAA (0.0, 0.5, 2.5, and 12.5 μM) and Kin (0.0, 2.5, 12.5, and 62.5 μM) were evaluated. A 0.5-mL aliquot of the resuspended cells was inoculated on each 15×60 mm plastic plate containing 20 mL MS-I medium with different combinations of Kin and NAA. The cells were spread with a spoon-like spatula to form a uniform layer on the surface of MS-I medium. The plates were sealed with Parafilm® and incubated in the dark at 25° C. The number of differentiated clumps was recorded after five weeks. The clumps were collected and grouped into four size classes: large (>10 mm), medium (5 to 10 mm), small (2 to 5 mm) and very small (<2 mm). The regeneration potential of differentiated clumps was assessed by randomly sampling 30 to 60 clumps from each size class and transferring them to three to six Magenta GA-7 vessels (Sigma Chem. Co., St. Louis, Mo.) containing 50 mL of MS-D medium (Table 1) supplemented with 1.25 μM BA. They were then incubated under light (50 μmol m^−2 s^−1) at 23° C. for six weeks. The total number of regenerating clumps (i.e., differentiated clumps that continued to grow and develop on MS-D medium) was counted, and percentages of regenerating clumps that developed shoots only or plantlets (rooted shoots derived from somatic embryos) were recorded. The regenerated shoots and plantlets were transferred to MS-R medium (Table 1) to promote root development. Each Kin/NAA combination was evaluated in five plates per experiment; the entire experiment was repeated three times.

For test [2], the system named is non-transformed iris cells. Description: Evaluation of selection agents: growth suppression of non-transformed iris suspension-cultured cells on MS-C medium. It is filed as cell-based, Iris germanica. The settings on record: for inhibition of cell growth scored visually: preliminary experiments, five concentrations. On the procedure: Evaluation of selection agents. […] To determine the efficacy of several commonly used agents for selecting transformed iris cells, the following substances were tested: five antibiotics (methotrexate, hygromycin, geneticin (G418), gentamycin, and phleomycin); three herbicides (glyphosate [N-(Phosphonomethyl)glycine] (Monsanto, St. Louis, Mo.), chlorsulfuron [2-Chloro-N-[[(methoxy-6-methyl-1,3,5-triazin-2-yl)amino]carbonyl]benzenesulfonamide] (E.I. Du Pont de Nemours & Co., Inc., Agricultural Products Dept., Wilmington, Del.) and glufosinate-ammonium (Basta; Hoechst Canada, Inc., Regina, Saskatchewan, Canada)); and one amino acid analog (4-methyl-tryptophan) (Sigma).
The liquid MS-L medium was removed from a three-week-old iris suspension culture and the cells spread on Whatman No. 1 filter papers (42.5 mm diameter) in small culture plates (60 mm×15 mm), over MS-C medium [MS-L medium with 3 g·L^−1 Phytagel (Sigma Chem. Co., St. Louis, Mo.), as described in Examples 1 and 2] containing increasing amounts of the selection agent. Plates were incubated for three weeks in the dark at 25° C. In preliminary experiments, five concentrations of each selection agent were tested and inhibition of cell growth was scored visually.
Fresh weights of resultant tissue were measured and mean values, expressed as a percentage of growth by controls (no selection agent). At least five plates were used for each concentration of selection agent.

The subject of test [3] is leaf samples from non-transformed iris plants. The test is described as follows: Leaf-bleach assay with paromomycin. Also noted: species or system Iris germanica. As to conditions: 200 mg·L^−1 paromomycin; leaf samples from control (non-transgenic) plants; five days. On the procedure: Functional assay of NPTII genes. To test the NPTII expression in transformed iris plants, the leaf-bleach assay was carried out according to Cheng et al. (Plant Physiol., 115:971-980, 1997), with minor modifications described below. Four pieces (≈7-mm) were cut from the second youngest leaf of each plant approximately one month after establishment in growing medium in the greenhouse. One leaf piece was placed in 1 mL of solution containing 25 mg·L^−1 benomyl fungicide [methyl 1-(butylcarbamoyl)-2 benzimidazolecarbamate] (Hi-Yield Chem. Co., Bonham, Tex.) and 0.01% Triton X-100 (Sigma), in a well of 24-well culture plate, as a control. Each of the remaining three pieces were placed in 1 mL of the same solution with either 50, 100, or 200 mg·L^−1 paromomycin (Sigma). Leaf samples from the non-transformed iris plants at a similar developmental stage were used as a negative control. The samples were vacuum-infiltrated for 10 minutes. The plates were then sealed with Parafilm and incubated for five days at 23° C. with a 16 hours photoperiod of 50 μmol·m^−2·s^−1 provided by cool-white fluorescent lamps. In preliminary assays, G418 and hygromycin were also tested, the latter for the functional expression of the hpt gene. The response to all three antibiotics was very similar, so paromomycin was selected to assay the rest of the putative transgenic iris plants because it was least expensive.

Where [4] appears, read: 0.5 μM in MS-I medium (main effect).
Setting [5] is: 2.5 μM in MS-I medium (main effect).
Setting [6] is: 12.5 μM in MS-I medium (main effect).
Setting [7] is: 62.5 μM in MS-I medium (main effect).

For `O=C(O)Cc1cccc2ccccc12` [NAA, 1-naphthaleneacetic acid], in test [1] (setting [4]), the “Regenerating clumps (%)” value was found to be 56%, the “Regenerating clumps developing PLANTLETS (%)” value is given as 94% and the “Regenerating clumps developing SHOOTS ONLY (%)” value is 6%. In test [1] (setting [5]), the “Regenerating clumps (%)” value is 55%, the “Regenerating clumps developing PLANTLETS (%)” value is given as 89% and the “Regenerating clumps developing SHOOTS ONLY (%)” value worked out at 11%. Moreover, in test [1] (setting [6]), the “Regenerating clumps (%)” value was found to be 33%, the “Regenerating clumps developing PLANTLETS (%)” value amounted to 94% and the “Regenerating clumps developing SHOOTS ONLY (%)” value was found to be 7%.

On to `CP(=O)(O)CCC(N)C(=O)O` (centres unmarked) [Basta, glufosinate-ammonium], for which, in test [2] (Iris germanica, 504 h, read-out: cell growth inhibited), the inhibition at 10 µg/mL was about 70%.

As for `NC[C@@H]1O[C@H](O[C@H]2[C@@H](O)[C@H](O[C@@H]3[C@@H](O)[C@H](N)C[C@H](N)[C@H]3O[C@H]3O[C@H](CO)[C@@H](O)[C@H](O)[C@H]3N)O[C@@H]2CO)[C@H](N)[C@@H](O)[C@@H]1O` [paromomycin], in test [3], the leaf bleaching entry is listed as “almost completely bleached”.

For `Cc1cccc2[nH]cc(C[C@H](N)C(=O)O)c12` [4-methyl-tryptophane, 4-methyl-tryptophan], the “inhibition of cell growth scored visually” value in test [2] is recorded as “did not clearly inhibit growth”.

Regarding phleomycin, in test [2], the “inhibition of cell growth scored visually” value is on record as “did not clearly inhibit growth”.

For the compound gentamycin, the “inhibition of cell growth scored visually” value in test [2] is listed as “did not clearly inhibit growth”.

Take `CN(Cc1cnc2nc(N)nc(N)c2n1)c1ccc(C(=O)N[C@@H](CCC(=O)O)C(=O)O)cc1` [methotrexate]: in test [2] (Iris germanica, 504 h, 0.05 mg·L^−1, three weeks on MS-C medium, read-out: cell growth inhibited), the inhibition at 0.05 µg/mL was about 80%.

Regarding `COc1nc(C)nc(NC(=O)NS(=O)(=O)c2ccccc2Cl)n1` [chlorsulfuron, 2-Chloro-N-[[(methoxy-6-methyl-1,3,5-triazin-2-yl)amino]carbonyl]benzenesulfonamide], in test [2] (Iris germanica, 504 h, 0.5 mg·L^−1, three weeks on MS-C medium, read-out: cell growth inhibited), the inhibition at 0.5 µg/mL was about 90%.

As to `c1coc(CNc2ncnc3[nH]cnc23)c1` [KIN, kinetin], in test [1] (setting [5]), the “Regenerating clumps (%)” value was 41%, the “Regenerating clumps developing PLANTLETS (%)” value is reported as 96% and the “Regenerating clumps developing SHOOTS ONLY (%)” value is recorded as 5%. In addition, in test [1] (setting [6]), the “Regenerating clumps (%)” value was 44%, the “Regenerating clumps developing PLANTLETS (%)” value stood at 89% and the “Regenerating clumps developing SHOOTS ONLY (%)” value came to 12%. Besides, in test [1] (setting [7]), the “Regenerating clumps (%)” value is 45%, the “Regenerating clumps developing PLANTLETS (%)” value was determined as 88% and the “Regenerating clumps developing SHOOTS ONLY (%)” value was determined as 12%.

On to `O=C(O)CNCP(=O)(O)O` [glyphosate, N-(Phosphonomethyl)glycine], for which the “inhibition of cell growth scored visually” value in test [2] is recorded as “did not clearly inhibit growth”.

(Values after patent publication US6459017B1, “Iris transformation method” (The State of Oregon Acting By and Through the State Board …, priority 2000, dated 2002).)
